For orientation: IC50 means the concentration that gives 50% inhibition. A low value points to greater potency in that assay.

Data on 1 molecule can be found in BindingDB's records for doi:10.1021/acs.jmedchem.6b00538 (University of Lille, 2017).

For this experiment, the target named is Fatty-acid amide hydrolase 1 (Rattus norvegicus) (UniProt P97612). Briefly: Inhibition of Wistar rat brain homogenate FAAH using [3H]AEA as substrate after 10 mins by liquid scintillation counting method.

The structures appear in SMILES notation.

Sequence of Fatty-acid amide hydrolase 1 (Rattus norvegicus) (P97612 whole entry, looked up): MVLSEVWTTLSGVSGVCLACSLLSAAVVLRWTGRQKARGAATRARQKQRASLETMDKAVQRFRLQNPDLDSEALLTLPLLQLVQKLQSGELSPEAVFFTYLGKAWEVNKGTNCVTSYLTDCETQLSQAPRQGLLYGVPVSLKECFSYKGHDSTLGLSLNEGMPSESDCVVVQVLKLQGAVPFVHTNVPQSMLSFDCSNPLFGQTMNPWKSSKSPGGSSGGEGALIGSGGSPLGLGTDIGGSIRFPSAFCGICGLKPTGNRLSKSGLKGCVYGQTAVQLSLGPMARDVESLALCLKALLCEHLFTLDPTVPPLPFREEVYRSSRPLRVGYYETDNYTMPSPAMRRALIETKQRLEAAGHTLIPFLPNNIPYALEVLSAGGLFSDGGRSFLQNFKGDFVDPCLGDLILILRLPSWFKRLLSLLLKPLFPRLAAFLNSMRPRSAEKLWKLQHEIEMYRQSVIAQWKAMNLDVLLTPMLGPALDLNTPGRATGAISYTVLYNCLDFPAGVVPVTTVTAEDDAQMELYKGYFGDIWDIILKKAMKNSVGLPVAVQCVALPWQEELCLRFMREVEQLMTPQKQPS

In the case of `COc1nn(-c2ccc(Oc3ccccc3)cc2C(F)(F)F)c(=O)o1`, the IC50 amounted to 230 nM.
